Experimental data from patent US10653688B2, “6-(6-membered heteroaryl and aryl)isoquinolin-3-yl carboxamides and preparation and use thereof” (Samumed, LLC, priority 2017, dated 2020).
Where two headings read alike, the source gives them in different places.

Legend:
[1] = tested on: Tau phosphorylation at Ser396 (pSer396) in SH-SY5Y cells; test: Tau phosphorylation at Ser396 (pSer396) cell assay, ELISA/western blot; format: cell-based, human; details: Homo sapiens; SH-SY5Y cells, overnight (16-18 h); read-out: pSer396 Tau EC50
recombinant GSK3β kinase = recombinant GSK3β kinase (Homo sapiens (Human), UniProt P49841); test: GSK3β kinase assay (Ser/Thr 09 peptide Z-lyte, FRET); format: biochemical;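 also: FRET read-out as coumarin over fluorescein emission ratio, compounds incubated one hour at room temperature, IC50 from dose-response curve fit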
Procedure: Each compound is dissolved in DMSO as a 10 mM stock and used to prepare compound source plates. Serial dilution (1:3, 11-point dose-response curves from 10 M to 0.0003 M) and compound transfer was performed using the ECHO 550 (Labcyte, Sunnyvale, Calif.) into 1536-well black-walled round bottom plates (Corning).
This is a non-radioactive assay using fluorescence resonance energy transfer (FRET) between coumarin and fluorescein to detect kinase activity which is represented as ratio of coumarin emission/fluorescein emission.
The mixture is allowed to incubate with the representative compounds for one hour at room temperature. All reactions were performed in duplicate. Unphosphorylated (“0% Control”) and phosphorylated (“100% control”) forms of Ser/Thr 18 serve as control reactions.
After incubation, diluted Development Buffer is added to the reaction and allowed to further incubate for one hour at room temperature.
Dose-response curves are generated and inhibitory concentration (IC50) values are calculated using non-linear regression curve fit in the Dotmatics' Studies Software (Bishops Stortford, UK).

[2] = tested on: Cyclin D1 phosphorylation at Threonine 286 (pCcnD1) over total Cyclin D1 in SH-SY5Y cells; test: phosphoCcnD1 to total CcnD1 ratio (PTT) cell-based assay, western blot; details: Homo sapiens, 48 hours
Procedure: Representative compounds were screened using the cell-based assay procedure for the ratio of signal of Cyclin D1 phosphorylation at Threonine 286 (pCcnD1) over the signal of total Cyclin D1 (CcnD1) (abbreviated: phosphoCcnD1 to total CcnD1 ratio, or PTT) as described below.
SH-SY5Y cells (human neuroblastoma, Sigma, Saint-Louis, Mo.) were cultured in 1:1 DMEM/F-12 medium supplemented with 15% FBS, 1% non-essential amino acid, and 1% penicillin/streptomycin.
SH-SY5Y cells were seeded at 1.0×10^5 cells in 1 mL per well in a 24-well plate. After cell adherence was confirmed, DMSO-resuspended Samumed compounds were dispensed to eight wells as a serial dilution from 10 μM to 4.6 nM final concentration in medium, or at 1.1 μM to 4.6 nM with particularly potent compounds. Cells were exposed to Samumed compounds for 48 hours in a 37° C. incubator.
Wells of compound-treated cells were visually checked for cell death before being washed with 500 μL per well of 1×DPBS supplemented with phosphatase inhibitor diluted to 1×. Cells were then lysed with 90 μL 1×RIPA buffer supplemented with phosphatase and protease inhibitors (each diluted to a final 1×). After scraping, 60 μL of cell lysate from each sample was used to dilute 4×LDS (ThermoFisher, NP0007) and 20×XT reducing agent (Bio-Rad, 1610792), each diluted to 1× final. All samples were then denatured via boiling at 95° C. Denatured cell sample lysates were directly tested for pCcnD1 and total CcnD1 signal by Western blot techniques and analysis. Specifically, denatured lysates were directly transferred to NuPAGE™ 4-12% Bis-Tris Midi Protein Gels, 26-well gels (ThermoFisher, WG1403BOX). Gels were transferred to […] nitrocellulose membranes via iBlot™ Transfer Stack, nitrocellulose, regular size (ThermoFisher, IB301031). Membranes were blocked with 1×TBS, 5% milk (Bio-Rad, 1706404XTU) before being probed for overnight with either anti-pCcnD1 primary antibody (Cell Signaling Technology, 2978S) or anti-total CcnD1 primary antibody (Cell Signaling Technology, 3300S) diluted 1:500 in 1×TBS-0.05% Tween-20, 3% milk. After overnight incubation in primary antibodies, membranes were washed profusely with 1×TBS-0.05% Tween-20 and probed for 1 hour with secondary anti-rabbit/HRP conjugate (Cell Signaling Technology, 7074S) diluted 1:1000 in 1×TBS-0.05% Tween-20, 3% milk. After incubation in secondary antibody, membranes were washed with 1×TBS-0.05% Tween-20.
Probed and washed membranes were developed for pCcnD1 or total CcnD1 signal with SuperSignal™ West Femto Maximum Sensitivity Substrate (ThermoFisher, 34096) using the ChemoDoc-It^2 (UVP) and related GelDocIt imaging software. Blots were then stripped, blocked, stained with anti-β-actin/HRP conjugate antibody (Cell Signaling Technology, 5125S), developed, and imaged for housekeeping β-actin protein control as previously described. Densitometry was measured with ImageJ (NIH) and signal was used to plot, draw the curves fitting, and determine the EC50 values in GraphPad Prism for tested Samumed compounds.

[3] = tested on: SW480 colon carcinoma cells; test: Cell viability assay (CellTiter-Glo); format: cell-based, human; details: Homo sapiens; for EC50: 96 h, four days, CellTiter-Glo; for inhibition at 10 µM: read-out: percent inhibition at 10 μM (given for EC50 >10 μM), 10 μM

Chain of recombinant GSK3β kinase (P49841 whole entry): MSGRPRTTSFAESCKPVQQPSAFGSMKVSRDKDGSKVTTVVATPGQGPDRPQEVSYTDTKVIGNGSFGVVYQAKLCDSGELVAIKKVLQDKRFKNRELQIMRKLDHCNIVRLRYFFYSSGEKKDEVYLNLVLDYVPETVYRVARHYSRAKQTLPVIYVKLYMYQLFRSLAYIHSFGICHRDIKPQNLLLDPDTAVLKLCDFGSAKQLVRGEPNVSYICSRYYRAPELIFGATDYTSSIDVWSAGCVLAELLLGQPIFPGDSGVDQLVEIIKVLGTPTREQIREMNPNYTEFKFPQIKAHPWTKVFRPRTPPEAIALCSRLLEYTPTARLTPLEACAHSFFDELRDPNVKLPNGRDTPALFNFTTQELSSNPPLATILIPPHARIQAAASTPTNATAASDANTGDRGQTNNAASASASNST

Compound: CN1CCC(C(=O)Nc2cc3cc(-c4cnccn4)ccc3cn2)CC1 [Compound 75, 1-Methyl-N-(6-(pyrazin-2-yl)isoquinolin-3-yl)piperidine-4-carboxamide]
- EC50 [1]: > 10000 nM
- EC50 (recombinant GSK3β kinase): 1390 nM
- EC50 [2]: 447 nM
- EC50 [3]: > 10000 nM
- inhibition at 10 µM [3]: 44.5%

Compound: Cc1cncc(-c2ccc3cnc(NC(=O)CN4CCOCC4)cc3c2)c1 [Compound 146, N-(6-(5-Methylpyridin-3-yl)isoquinolin-3-yl)-2-morpholinoacetamide]
- EC50 [1]: 7800 nM
- EC50 (recombinant GSK3β kinase; GSK3β kinase, head says EC50, method says IC50, ATP 46 μM): 623 nM
- EC50 [2]: 68 nM
- EC50 [3]: > 10000 nM
- inhibition at 10 µM [3]: 23.1%
